Patent US10758534B2 (Vertex Pharmaceuticals Incorporated, priority 2014, dated 2020)

Target: T1, F508del (Homo sapiens, UniProt P13569, DEL508-508)
T1 construct: expressed in transfected cells
Experiment: Protocol 1: membrane potential optical assay (FLIPR III, voltage sensing dye), identification of potentiator compounds
Format: cell-based
Details: Table 3, compounds of Table 1
Method in brief: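 NIH 3T3 fibroblasts stably expressing F508del were cultured at 27° C for 24 hrs for temperature correction, then treated with compounds or DMSO and loaded with a voltage-sensing redistribution dye. Forskolin added with a Cl⁻ gradient activated the channel; membrane-potential fluorescence on FLIPR III reported increased gating.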

T1 sequence (P13569 with tags, fused parts or gaps DEL508-508): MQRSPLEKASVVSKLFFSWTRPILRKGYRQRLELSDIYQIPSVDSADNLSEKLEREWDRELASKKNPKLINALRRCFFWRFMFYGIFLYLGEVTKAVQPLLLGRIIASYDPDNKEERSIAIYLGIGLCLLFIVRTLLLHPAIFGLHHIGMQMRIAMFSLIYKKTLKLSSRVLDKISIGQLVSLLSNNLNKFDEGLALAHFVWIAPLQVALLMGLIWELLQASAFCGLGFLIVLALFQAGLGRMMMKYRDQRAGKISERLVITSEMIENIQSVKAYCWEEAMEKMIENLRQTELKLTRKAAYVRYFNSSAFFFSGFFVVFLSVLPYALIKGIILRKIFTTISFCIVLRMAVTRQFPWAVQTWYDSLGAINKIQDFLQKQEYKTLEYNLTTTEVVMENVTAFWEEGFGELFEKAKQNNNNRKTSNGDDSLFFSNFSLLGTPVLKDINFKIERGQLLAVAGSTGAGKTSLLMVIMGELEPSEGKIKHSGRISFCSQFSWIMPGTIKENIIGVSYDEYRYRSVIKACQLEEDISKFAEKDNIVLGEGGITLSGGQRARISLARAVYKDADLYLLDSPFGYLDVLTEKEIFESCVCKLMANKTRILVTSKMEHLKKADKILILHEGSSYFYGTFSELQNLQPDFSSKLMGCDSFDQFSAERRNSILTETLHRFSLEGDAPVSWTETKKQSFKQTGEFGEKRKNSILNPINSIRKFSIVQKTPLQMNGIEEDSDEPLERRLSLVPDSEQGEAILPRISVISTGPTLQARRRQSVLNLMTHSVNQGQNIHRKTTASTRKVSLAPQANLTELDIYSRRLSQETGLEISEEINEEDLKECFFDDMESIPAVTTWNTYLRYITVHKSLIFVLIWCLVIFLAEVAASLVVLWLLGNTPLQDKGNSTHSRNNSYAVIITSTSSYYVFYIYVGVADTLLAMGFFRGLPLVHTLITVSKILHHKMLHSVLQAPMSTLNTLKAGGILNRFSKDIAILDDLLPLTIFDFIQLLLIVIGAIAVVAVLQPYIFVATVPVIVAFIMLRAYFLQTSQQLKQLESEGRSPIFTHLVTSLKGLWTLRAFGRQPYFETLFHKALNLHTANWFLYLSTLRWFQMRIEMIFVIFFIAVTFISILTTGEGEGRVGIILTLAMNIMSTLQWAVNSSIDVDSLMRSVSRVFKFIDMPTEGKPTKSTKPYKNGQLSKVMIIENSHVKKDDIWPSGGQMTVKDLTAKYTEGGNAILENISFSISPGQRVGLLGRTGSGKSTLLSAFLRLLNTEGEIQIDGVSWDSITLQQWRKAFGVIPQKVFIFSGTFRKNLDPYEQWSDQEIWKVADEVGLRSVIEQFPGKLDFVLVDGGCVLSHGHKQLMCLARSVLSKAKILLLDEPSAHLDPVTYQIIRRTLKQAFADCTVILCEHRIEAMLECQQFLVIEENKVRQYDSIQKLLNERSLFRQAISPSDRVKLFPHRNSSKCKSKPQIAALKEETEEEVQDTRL

| SMILES | EC30 |
| --- | --- |
| CCc1ccc(C(=O)NS(=O)(=O)c2cccc(N)n2)c(N2C[C@@H](C)CC2(C)C)n1 [Compound 1507, N-[(6-amino-2-pyridyl)sulfonyl]-6-ethyl-2-[(4S)-2,2,4-trimethylpyrrolidin-1-yl]pyridine-3-carboxamide] | ++ (“++” means between 3 uM and 10 uM) |
| CCOc1cccc2c1CN(Cc1c(C)cc(C)cc1C)C2(C)C(=O)NS(=O)(=O)c1ccccc1O (stereo not drawn) [Compound 1509, 4-ethoxy-N-(2-hydroxyphenyl)sulfonyl-1-methyl-2-[(2,4,6-trimethylphenyl)methyl]isoindoline-1-carboxamide] | +++ (“+++” means <3 uM) |
| CC(C)=C(C)c1ccc(C(=O)NS(=O)(=O)c2cccc(N)n2)c(N2C[C@@H](C)CC2(C)C)n1 [Compound 1510, N-[(6-amino-2-pyridyl)sulfonyl]-6-(1,2-dimethylprop-1-enyl)-2-[(4S)-2,2,4-trimethylpyrrolidin-1-yl]pyridine-3-carboxamide] | +++ (“+++” means <3 uM) |
| CC1CN(c2nc(C(C)(C)C)ccc2C(=O)NS(=O)(=O)c2cccc(N)n2)C(C)(C)C1 (stereo not drawn) [Compound 1511] | +++ (“+++” means <3 uM) |
| CCOc1cc(C)cc(-c2ccc(C(=O)NS(=O)(=O)c3cccc(N)n3)c(N3C[C@@H](C)CC3(C)C)n2)n1 [Compound 1512, N-[(6-amino-2-pyridyl)sulfonyl]-6-(6-ethoxy-4-methyl-2-pyridyl)-2-[(4S)-2,2,4-trimethylpyrrolidin-1-yl]pyridine-3-carboxamide] | +++ (“+++” means <3 uM) |
| Cc1cc(C)c(Oc2nc(C3=CCCCCC3)ccc2C(=O)NS(=O)(=O)c2cccc(N)n2)c(C)c1 [Compound 1513, N-[(6-amino-2-pyridyl)sulfonyl]-6-(cyclohepten-1-yl)-2-(2,4,6-trimethylphenoxy)pyridine-3-carboxamide] | +++ (“+++” means <3 uM) |
| Cc1cc(OC(C)C)ncc1-c1ccc(C(=O)NS(=O)(=O)c2cccc(N)n2)c(N2[C@H](C)CC[C@@H]2C)n1 [Compound 1514, N-[(6-amino-2-pyridyl)sulfonyl]-2-[(2R,5S)-2,5-dimethylpyrrolidin-1-yl]-6-(6-isopropoxy-4-methyl-3-pyridyl)pyridine-3-carboxamide] | +++ (“+++” means <3 uM) |
| CC(CO)COc1cc(F)cc(-c2ccc(C(=O)NS(=O)(=O)c3ccccc3)c(N3C[C@@H](C)CC3(C)C)n2)c1 (stereo partly drawn) [Compound 1515, N-(benzenesulfonyl)-6-[3-fluoro-5-(3-hydroxy-2-methyl-propoxy)phenyl]-2-[(4S)-2,2,4-trimethylpyrrolidin-1-yl]pyridine-3-carboxamide] | +++ (“+++” means <3 uM) |
| Cc1cc(C)c(Oc2nc(N3CCCC3C)c(C)cc2C(=O)NS(=O)(=O)c2cccc(N)n2)c(C)c1 (stereo not drawn) [Compound 1516, N-[(6-amino-2-pyridyl)sulfonyl]-5-methyl-6-(2-methylpyrrolidin-1-yl)-2-(2,4,6-trimethylphenoxy)pyridine-3-carboxamide] | +++ (“+++” means <3 uM) |
| Cc1cc(C)c(Oc2nc(C3=CCSCC3)ccc2C(=O)NS(=O)(=O)c2cccc(N)n2)c(C)c1 [Compound 1517, N-[(6-amino-2-pyridyl)sulfonyl]-6-(3,6-dihydro-2H-thiopyran-4-yl)-2-(2,4,6-trimethylphenoxy)pyridine-3-carboxamide] | +++ (“+++” means <3 uM) |
| Cc1cc(C)c(Oc2nc(C3=CC4CCC3C4)ccc2C(=O)NS(=O)(=O)c2cccc(N)n2)c(C)c1 (stereo not drawn) [Compound 1518, N-[(6-amino-2-pyridyl)sulfonyl]-6-(3-bicyclo[2.2.1]hept-2-enyl)-2-(2,4,6-trimethylphenoxy)pyridine-3-carboxamide] | +++ (“+++” means <3 uM) |
| Cc1cc(C)c(Oc2nc(C3CCC(C(F)(F)F)CC3)ccc2C(=O)NS(=O)(=O)c2cccc(N)n2)c(C)c1 (stereo not drawn) [Compound 1519, N-[(6-amino-2-pyridyl)sulfonyl]-6-[4-(trifluoromethyl)cyclohexyl]-2-(2,4,6-trimethylphenoxy)pyridine-3-carboxamide] | +++ (“+++” means <3 uM) |
| CC(C)COc1cc(F)cc(-c2ccc(C(=O)NS(=O)(=O)N3CCCC(C)(NC(=O)OC(C)(C)C)C3)c(N3CC(C)CC3(C)C)n2)c1 (stereo not drawn) [Compound 1520, tert-butyl N—[1-[[6-(3-fluoro-5-isobutoxy-phenyl)-2-(2,2,4-trimethylpyrrolidin-1-yl)pyridine-3-carbonyl]sulfamoyl]-3-methyl-3-piperidyl]carbamate] | +++ (“+++” means <3 uM) |
| CC(C)COc1cc(F)cc(-c2ccc(C(=O)NS(=O)(=O)N3CC4CC4(N)C3)c(N3C[C@@H](C)CC3(C)C)n2)c1 (stereo partly drawn) [Compound 1521, N-[(5-amino-3-azabicyclo[3.1.0]hexan-3-yl)sulfonyl]-6-(3-fluoro-5-isobutoxy-phenyl)-2-[(4S)-2,2,4-trimethylpyrrolidin-1-yl]pyridine-3-carboxamide] | +++ (“+++” means <3 uM) |
| CC1CN(c2nc(C(C)(C)C)c(C3=CCN(C(=O)OC(C)(C)C)CC3)cc2C(=O)NS(=O)(=O)c2cccc(N)n2)C(C)(C)C1 (stereo not drawn) [Compound 1522, tert-butyl 4-[5-[(6-amino-2-pyridyl)sulfonylcarbamoyl]-2-tert-butyl-6-(2,2,4-trimethylpyrrolidin-1-yl)-3-pyridyl]-3,6-dihydro-2H-pyridine-1-carboxylate] | +++ (“+++” means <3 uM) |
| CC(C)COc1cncc(-c2ccc(C(=O)NS(=O)(=O)c3cccc(N)n3)c(N3C[C@@H](C)CC3(C)C)n2)n1 [Compound 1523, N-[(6-amino-2-pyridyl)sulfonyl]-6-(6-isobutoxypyrazin-2-yl)-2-[(4S)-2,2,4-trimethylpyrrolidin-1-yl]pyridine-3-carboxamide] | +++ (“+++” means <3 uM) |
| C[C@@H]1CN(c2nc(C3=COCCC3)ccc2C(=O)NS(=O)(=O)c2cccc(N)n2)C(C)(C)C1 [Compound 1524, N-[(6-amino-2-pyridyl)sulfonyl]-6-(3,4-dihydro-2H-pyran-5-yl)-2-[(4S)-2,2,4-trimethylpyrrolidin-1-yl]pyridine-3-carboxamide] | +++ (“+++” means <3 uM) |
| CC(C)COc1cc(F)cc(-c2ccc(C(=O)NS(=O)(=O)C3CC3)c(N3C[C@@H](C)CC3(C)C)n2)c1 [Compound 1525, N-cyclopropylsulfonyl-6-(3-fluoro-5-isobutoxy-phenyl)-2-[(4S)-2,2,4-trimethylpyrrolidin-1-yl]pyridine-3-carboxamide] | +++ (“+++” means <3 uM) |
| CC(C)COc1cc(F)cc(-c2cnc(C(=O)NS(=O)(=O)c3cccc(N)n3)c(N3C[C@@H](C)CC3(C)C)n2)c1 [Compound 1526, NV [(6-amino-2-pyridyl)sulfonyl]-5-(3-fluoro-5-isobutoxy-phenyl)-3-[(4S)-2,2,4-trimethylpyrrolidin-1-yl]pyrazine-2-carboxamide] | +++ (“+++” means <3 uM) |
| CC(C)C[C@@H](C)Nc1ccc(-c2ccc(C(=O)NS(=O)(=O)c3cccc(N)n3)c(N3[C@H](C)CC[C@@H]3C)n2)cn1 [Compound 1527, N-[(6-amino-2-pyridyl)sulfonyl]-6-[6-[[(1R)-1,3-dimethylbutyl]amino]-3-pyridyl]-2-[(2S,5R)-2,5-dimethylpyrrolidin-1-yl]pyridine-3-carboxamide] | +++ (“+++” means <3 uM) |
| Cc1cc(C)c(Oc2nc(C3=CC(=O)CC(C)(C)C3)ccc2C(=O)NS(=O)(=O)c2cccc(N)n2)c(C)c1 [Compound 1528, N-[(6-amino-2-pyridyl)sulfonyl]-6-(5,5-dimethyl-3-oxo-cyclohexen-1-yl)-2-(2,4,6-trimethylphenoxy)pyridine-3-carboxamide] | ++ (“++” means between 3 uM and 10 uM) |
| CC(C)COc1cc(F)cc(-c2ccc(C(=O)NS(=O)(=O)c3cccc(N)n3)c(N3CC4CC(C4)C3)n2)c1 [Compound 1529, N-[(6-amino-2-pyridyl)sulfonyl]-2-(3-azabicyclo[3.1.1]heptan-3-yl)-6-(3-fluoro-5-isobutoxy-phenyl)pyridine-3-carboxamide] | +++ (“+++” means <3 uM) |
| CC(C)COc1cc(F)cc(-c2ccc(C(=O)NS(=O)(=O)c3cccc(N)n3)c(OC3CCC3C3CC3)n2)c1 (stereo not drawn) [Compound 1530, N-[(6-amino-2-pyridyl)sulfonyl]-2-(2-cyclopropylcyclobutoxy)-6-(3-fluoro-5-isobutoxy-phenyl)pyridine-3-carboxamide] | +++ (“+++” means <3 uM) |
| CC(C)COc1cc(F)cc(-c2ccc(C(=O)NS(=O)(=O)c3cccc(N)n3)c(C3=CC(C)(C)OC3(C)C)n2)c1 [Compound 1531, N-[(6-amino-2-pyridyl)sulfonyl]-6-(3-fluoro-5-isobutoxy-phenyl)-2-(2,2,5,5-tetramethyl-3-furyl)pyridine-3-carboxamide] | ++ (“++” means between 3 uM and 10 uM) |
| Cc1cn(-c2ccc(C(=O)NS(=O)(=O)c3cccc(N)n3)c(N3C[C@@H](C)CC3(C)C)n2)nc1OCC(C)C [Compound 1532, N-[(6-amino-2-pyridyl)sulfonyl]-6-(3-isobutoxy-4-methyl-pyrazol-1-yl)-2-[(4S)-2,2,4-trimethylpyrrolidin-1-yl]pyridine-3-carboxamide] | +++ (“+++” means <3 uM) |
| CC(=O)N(C)C1CCN(S(=O)(=O)NC(=O)c2ccc(-c3cc(F)cc(OCC(C)C)c3)nc2N2CC(C)CC2(C)C)C1 (stereo not drawn) [Compound 1533, N—[3-[acetyl(methyl)amino]pyrrolidin-1-yl]sulfonyl-6-(3-fluoro-5-isobutoxy-phenyl)-2-(2,2,4-trimethylpyrrolidin-1-yl)pyridine-3-carboxamide] | +++ (“+++” means <3 uM) |
| C[C@@H]1CN(c2nc(C3CCOC3)ccc2C(=O)NS(=O)(=O)c2cccc(N)n2)C(C)(C)C1 (stereo partly drawn) [Compound 1534, N-[(6-amino-2-pyridyl)sulfonyl]-6-tetrahydrofuran-3-yl-2-[(4S)-2,2,4-trimethylpyrrolidin-1-yl]pyridine-3-carboxamide] | ++ (“++” means between 3 uM and 10 uM) |
